Laboratory results from ChEMBL document CHEMBL3856202, “Synthesis and screening of triazolopyrimidine scaffold as multi-functional agents for Alzheimer's disease therapies” (Eur J Med Chem, 2016).
The source made the active and inactive calls. The calls are words filed in the database; no cut-off is given here.

Experiments:
[1] = target: Acetylcholinesterase (Electrophorus electricus, UniProt O42275)
Description: Inhibition of electric eel AChE preincubated for 5 mins followed by addition of acetylthiocholine iodide as substrate measured after 2 mins by Ellman's method

[2] = target: Cholinesterase (Equus caballus, UniProt P81908)
Description: Inhibition of equine serum BuChE preincubated for 5 mins followed by addition of butyrylthiocholine iodide as substrate measured after 2 mins by Ellman's method

[3] = target: Acetylcholinesterase (Electrophorus electricus) (UniProt O42275); conditions: at 100 µM
Chain of Acetylcholinesterase (Electrophorus electricus) (O42275 24-633 limits assumed): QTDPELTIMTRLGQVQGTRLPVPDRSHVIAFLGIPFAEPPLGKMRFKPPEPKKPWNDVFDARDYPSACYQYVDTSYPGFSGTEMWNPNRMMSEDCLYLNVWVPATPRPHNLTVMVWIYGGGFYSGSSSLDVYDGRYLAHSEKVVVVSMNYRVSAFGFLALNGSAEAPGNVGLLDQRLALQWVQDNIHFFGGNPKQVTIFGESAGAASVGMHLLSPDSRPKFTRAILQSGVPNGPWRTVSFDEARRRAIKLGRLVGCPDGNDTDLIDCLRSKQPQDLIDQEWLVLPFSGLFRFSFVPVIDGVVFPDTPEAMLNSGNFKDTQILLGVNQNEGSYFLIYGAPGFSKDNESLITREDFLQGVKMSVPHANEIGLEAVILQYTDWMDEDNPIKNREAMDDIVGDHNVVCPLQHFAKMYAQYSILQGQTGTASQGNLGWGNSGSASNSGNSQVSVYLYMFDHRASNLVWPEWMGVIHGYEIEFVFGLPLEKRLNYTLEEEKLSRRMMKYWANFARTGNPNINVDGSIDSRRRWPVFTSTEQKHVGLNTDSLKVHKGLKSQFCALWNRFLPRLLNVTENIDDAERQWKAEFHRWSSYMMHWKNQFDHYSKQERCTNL
Description: Inhibition of electric eel AChE-mediated amyloid beta (1 to 42) (unknown origin) co-aggregation at 100 uM measured after 48 hrs by ThT-assay

[4] = target: Amyloid-beta precursor protein (Homo sapiens) (UniProt P05067); conditions: at 25 µM
Chain of Amyloid-beta precursor protein (Homo sapiens) (P05067 whole entry): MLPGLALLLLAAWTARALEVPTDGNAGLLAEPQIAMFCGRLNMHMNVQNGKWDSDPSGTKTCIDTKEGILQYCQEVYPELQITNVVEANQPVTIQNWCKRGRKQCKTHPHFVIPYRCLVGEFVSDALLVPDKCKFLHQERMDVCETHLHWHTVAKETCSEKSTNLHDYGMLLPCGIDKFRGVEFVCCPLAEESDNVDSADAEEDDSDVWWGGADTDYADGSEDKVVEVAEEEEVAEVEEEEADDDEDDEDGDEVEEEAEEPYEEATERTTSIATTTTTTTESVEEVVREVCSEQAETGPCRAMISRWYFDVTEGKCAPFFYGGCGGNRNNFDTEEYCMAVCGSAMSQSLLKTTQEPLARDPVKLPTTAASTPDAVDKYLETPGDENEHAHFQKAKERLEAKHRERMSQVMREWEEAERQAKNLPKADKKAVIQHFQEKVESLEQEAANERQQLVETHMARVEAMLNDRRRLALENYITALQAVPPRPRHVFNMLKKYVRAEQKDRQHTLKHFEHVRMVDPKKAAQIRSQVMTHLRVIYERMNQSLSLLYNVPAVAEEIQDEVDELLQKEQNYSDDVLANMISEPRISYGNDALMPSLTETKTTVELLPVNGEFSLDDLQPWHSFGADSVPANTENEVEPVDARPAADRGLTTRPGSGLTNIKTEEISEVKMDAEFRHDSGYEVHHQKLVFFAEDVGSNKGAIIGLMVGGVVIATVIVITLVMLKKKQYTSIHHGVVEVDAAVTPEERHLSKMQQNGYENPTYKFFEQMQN
Description: Inhibition of amyloid beta (1 to 42) (unknown origin) self-aggregation at 25 uM measured after 48 hrs by ThT-assay

[5] = Cytotoxicity against human SH-SY5Y cells assessed as cell viability at 1 to 50 uM measured after 24 hrs by MTT assay; format: toxicity, cell-based
[6] = tested on: SH-SY5Y; assay: Neuroprotective activity in human SH-SY5Y cells assessed as reduction of amyloid beta (1 to 42)-induced neurotoxicity measured as cell viability preincubated 30 mins followed by amyloid beta (1 to 42) peptide addition for 24 hrs by MTT assay; format: functional, cell-based
[7] = tested on: SH-SY5Y; assay: Neuroprotective activity in human SH-SY5Y cells assessed as reduction of H2O2-induced neurotoxicity measured as morphological changes at 10 uM incubated for 24 hrs with H2O2-challenge by microscopy; format: functional, cell-based
[8] = Neuroprotective activity in human SH-SY5Y cells assessed as reduction of amyloid beta (1 to 42)-induced neurotoxicity measured as cell viability at 5 to 25 uM preincubated 30 mins followed by amyloid beta (1 to 42) peptide addition for 24 hrs by MTT assay relative to control; format: functional
[9] = tested on: SH-SY5Y; assay: Neuroprotective activity in human SH-SY5Y cells assessed as reduction of H2O2-induced neurotoxicity measured as increase in cell viability at 1 to 20 uM incubated for 24 hrs with H2O2-challenge by MTT assay; format: functional, cell-based
[10] = tested on: SH-SY5Y; assay: Neuroprotective activity in human SH-SY5Y cells assessed as reduction of amyloid beta (1 to 42)-induced neurotoxicity measured as morphological changes preincubated 30 mins followed by amyloid beta (1 to 42) peptide addition for 24 hrs by microscopy; format: functional, cell-based
[11] = target: Amyloid-beta precursor protein (Homo sapiens) (UniProt P05067); assay: Inhibition of amyloid beta (1 to 42) (unknown origin) aggregation assessed at 25 uM after 24 to 48 hrs by transmission electron microscopic analysis
[12] = target: Acetylcholinesterase (Electrophorus electricus) (UniProt O42275); assay: Potency index, ratio of IC50 for galantamine to IC50 for test compound against electric eel AChE
[13] = target: Cholinesterase (Equus caballus) (UniProt P81908); assay: Potency index, ratio of IC50 donepezil to IC50 for test compound against equine serum BuChE
Chain of Cholinesterase (Equus caballus) (P81908 whole entry): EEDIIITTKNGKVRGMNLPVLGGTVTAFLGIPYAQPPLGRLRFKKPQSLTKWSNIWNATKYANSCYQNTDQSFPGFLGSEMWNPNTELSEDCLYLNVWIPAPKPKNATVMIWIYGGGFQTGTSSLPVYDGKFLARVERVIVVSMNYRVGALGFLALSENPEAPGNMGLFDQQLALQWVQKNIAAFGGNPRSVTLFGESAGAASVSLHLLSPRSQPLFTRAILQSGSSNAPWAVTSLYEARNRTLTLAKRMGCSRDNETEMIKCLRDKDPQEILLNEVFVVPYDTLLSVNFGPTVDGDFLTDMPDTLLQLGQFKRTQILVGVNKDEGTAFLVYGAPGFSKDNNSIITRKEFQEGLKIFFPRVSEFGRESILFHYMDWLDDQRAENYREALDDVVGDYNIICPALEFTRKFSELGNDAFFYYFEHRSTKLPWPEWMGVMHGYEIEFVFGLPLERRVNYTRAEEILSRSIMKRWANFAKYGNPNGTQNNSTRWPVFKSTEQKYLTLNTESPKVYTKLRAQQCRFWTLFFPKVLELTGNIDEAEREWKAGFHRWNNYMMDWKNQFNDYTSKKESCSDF

[14] = target: Acetylcholinesterase (Electrophorus electricus) (UniProt O42275); assay: Potency index, ratio of IC50 for tacrine to IC50 for test compound against electric eel AChE
[15] = target: Acetylcholinesterase (Electrophorus electricus) (UniProt O42275); assay: Potency index, ratio of IC50 for rivastigmine to IC50 for test compound against electric eel AChE
[16] = target: Acetylcholinesterase (Electrophorus electricus) (UniProt O42275); conditions: at 12 to 42 nM

Chain of Acetylcholinesterase (O42275 whole entry): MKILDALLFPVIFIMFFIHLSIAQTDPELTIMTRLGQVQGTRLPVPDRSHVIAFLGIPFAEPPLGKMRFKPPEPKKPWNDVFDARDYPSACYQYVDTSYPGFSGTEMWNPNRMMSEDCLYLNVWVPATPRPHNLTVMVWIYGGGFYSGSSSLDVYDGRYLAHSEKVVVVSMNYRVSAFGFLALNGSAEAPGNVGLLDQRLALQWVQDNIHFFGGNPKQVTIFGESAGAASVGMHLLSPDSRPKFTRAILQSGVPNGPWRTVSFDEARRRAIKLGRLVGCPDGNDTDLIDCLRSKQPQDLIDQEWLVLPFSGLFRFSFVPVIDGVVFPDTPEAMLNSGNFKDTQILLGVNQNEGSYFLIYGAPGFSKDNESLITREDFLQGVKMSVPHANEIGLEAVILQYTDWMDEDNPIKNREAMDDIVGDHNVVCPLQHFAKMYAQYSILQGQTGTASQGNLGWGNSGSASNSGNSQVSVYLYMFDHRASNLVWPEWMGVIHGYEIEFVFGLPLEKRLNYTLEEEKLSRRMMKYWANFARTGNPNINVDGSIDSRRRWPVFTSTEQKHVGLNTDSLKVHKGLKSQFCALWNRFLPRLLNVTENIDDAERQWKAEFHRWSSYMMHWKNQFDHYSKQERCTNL
Chain of Cholinesterase (P81908 whole entry): as the sequence (P81908 whole entry) above

SMILES	IC50 [1]	IC50 [2]	inhibition [3]	inhibition [4]	Activity [5]	Activity [6]	Activity [7]	Activity [8]	Activity [9]	Activity [10]	inhibition [11]	Ratio IC50 [12]	Ratio IC50 [13]	Ratio IC50 [14]	Ratio IC50 [15]	inhibition [16]
CCOC(=O)c1cnc2ccc(F)cc2c1N1CCN(c2ncccc2C#N)CC1	580 nM	1230 nM	59%	54.9%	–	–	–	–	–	–	–	–	–	–	–	–
CCOC(=O)c1cnc2ccc(OC)cc2c1N1CCN(c2cc(C)nc3ncnn23)CC1	760 nM	2010 nM	68.7%	61.6%	Non-Toxic	Dose-dependent effect	Active	79 - 83%	Active	Active	Active	–	–	–	–	–
CCOC(=O)c1cnc2cc(C(F)(F)F)ccc2c1N1CCN(c2ncccc2C#N)CC1	880 nM	980 nM	47.8%	44.2%	–	–	–	–	–	–	–	–	–	–	–	–
CCOC(=O)c1cnc2ccc(C)cc2c1N1CCN(c2ncccc2C#N)CC1	3490 nM	3000 nM	–	27.3%	–	–	–	–	–	–	–	–	–	–	–	–
CCOC(=O)c1cnc2cc(C(F)(F)F)ccc2c1N1CCN(c2cc(C)nc3ncnn23)CC1	180 nM	780 nM	52%	43.8%	–	–	–	–	–	–	–	–	–	–	–	–
CCOC(=O)c1cnc2c(F)cccc2c1N1CCN(c2ncccc2C#N)CC1	730 nM	890 nM	50.3%	47.4%	–	–	–	–	–	–	–	–	–	–	–	–
CCOC(=O)c1cnc2ccc(F)cc2c1N1CCN(c2cc(C)nc3ncnn23)CC1	42 nM	510 nM	80.5%	72.9%	Non-Toxic	Dose-dependent effect	Active	79 - 83%	Active	Active	Active	74	14	3.2	106	Active
CCOC(=O)c1cnc2c(F)cccc2c1N1CCN(c2cc(C)nc3ncnn23)CC1	97 nM	180 nM	70.3%	64.2%	Non-Toxic	Dose-dependent effect	Active	79 - 83%	Active	Active	Active	32	5	–	46	–
CCOC(=O)c1cnc2ccc(OC)cc2c1N1CCN(c2ncccc2C#N)CC1	1100 nM	1900 nM	–	39.8%	–	–	–	–	–	–	–	–	–	–	–	–
Cc1cc(N2CCN(c3ncccc3C#N)CC2)n2ncnc2n1	1390 nM	780 nM	49.4%	46.8%	–	–	–	–	–	–	–	–	–	–	–	–
CCOC(=O)c1cnc2ccc(C)cc2c1N1CCN(c2cc(C)nc3ncnn23)CC1	2640 nM	4090 nM	54.3%	52.5%	–	–	–	–	–	–	–	–	–	–	–	–
